# Assay results reported in patent US20130261132A1, “CALCIUM-SENSING RECEPTOR-ACTIVE COMPOUNDS” (LEO PHARMA A/S, priority 2010, published 2013).
# What was measured:
# [1] = molecular target: T1, human CaSR (Homo sapiens, UniProt P41180); assay: Functional whole cell assay (modulation of human CaSR), IP1 accumulation in CHO-K1 cells; format: cell-based; settings: CHO-K1 cells stably expressing human CaSR, final Ca2+ 1.9 mM, IP1 readout; concentration producing 50% of maximum agonistic response
# T1 sequence (P41180 20-1078): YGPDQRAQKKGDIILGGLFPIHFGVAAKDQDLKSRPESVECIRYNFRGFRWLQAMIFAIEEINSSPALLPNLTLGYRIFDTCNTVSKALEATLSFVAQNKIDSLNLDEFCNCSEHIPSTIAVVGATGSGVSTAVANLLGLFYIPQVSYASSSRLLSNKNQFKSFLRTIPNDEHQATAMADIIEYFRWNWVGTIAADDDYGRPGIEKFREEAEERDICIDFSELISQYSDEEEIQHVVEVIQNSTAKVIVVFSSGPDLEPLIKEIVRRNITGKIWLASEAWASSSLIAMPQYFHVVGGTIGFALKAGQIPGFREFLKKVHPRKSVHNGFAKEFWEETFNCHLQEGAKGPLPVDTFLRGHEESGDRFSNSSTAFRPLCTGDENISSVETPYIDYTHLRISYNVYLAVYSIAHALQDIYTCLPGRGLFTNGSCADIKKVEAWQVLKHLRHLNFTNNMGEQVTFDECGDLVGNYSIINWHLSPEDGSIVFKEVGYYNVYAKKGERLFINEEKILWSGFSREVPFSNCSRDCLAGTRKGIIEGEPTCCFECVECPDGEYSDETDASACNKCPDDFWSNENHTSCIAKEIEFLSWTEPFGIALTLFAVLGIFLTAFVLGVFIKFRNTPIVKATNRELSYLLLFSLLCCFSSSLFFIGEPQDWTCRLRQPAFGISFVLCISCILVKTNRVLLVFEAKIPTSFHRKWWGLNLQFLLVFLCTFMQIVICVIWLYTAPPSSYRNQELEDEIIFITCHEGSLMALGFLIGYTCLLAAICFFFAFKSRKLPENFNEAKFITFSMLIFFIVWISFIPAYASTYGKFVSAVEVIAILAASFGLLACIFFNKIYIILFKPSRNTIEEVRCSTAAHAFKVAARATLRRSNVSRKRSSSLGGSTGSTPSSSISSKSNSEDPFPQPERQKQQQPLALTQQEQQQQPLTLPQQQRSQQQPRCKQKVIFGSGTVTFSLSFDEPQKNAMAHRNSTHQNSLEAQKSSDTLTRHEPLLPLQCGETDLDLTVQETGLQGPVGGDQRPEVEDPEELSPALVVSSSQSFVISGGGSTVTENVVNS
# Description: The assay investigates a compound's functional ability to act as a biological positive modulator on the human CaSR. Activation of the receptor expressed on CHO-K1 cells is detected through the G alpha q pathway, the activation of phospholipase C and the accumulation of intracellular inositol phosphate (IP) as described earlier [Sandrine Ferry, Bruno Chatel, Robert H. Dodd, Christine Lair, Danielle Gully, Jean-Pierre Maffrand, and Martial Ruat. Effects of Divalent Cations and of a Calcimimetic on Adrenocorticotropic Hormone Release in Pituitary Tumor Cells. Biochemical and biophysical research Communications 238, 866-873 (1997)]. The human CaSR is stably expressed on a CHO-K1 cell clone, stimulated with a basal level of calcium and challenged with the tested compound. The level of IP1 is determined using the IP-One Terbium htrf kit (Cisbio, France). CHO-K1 cells not transfected with the CaSR fail to elicit an IP1 response upon calcium and/or compound stimulation.
# The ORF coding for the human CaSR (genebank: NM_000388) was acquired from Invitrogen Corp, USA and subsequently cloned into the mammalian expression vector pCDA3.1.
# CHO-K1 cells were transfected using Lipofectamine according to manufacturer's protocol (400.000 cells/well were seeded in a 6-well plate and transfected after 24 hours using 2 μg DNA and 5 μl lipofectamine). After another 24 hours the cells were detached, seeded and subjected to 1 mg/ml of G-418. Following 7 days growth single clones were picked, the CaSR expression evaluated using the 5C10 antibody against CaSR, the clones with the highest expression were selected and tested for functional response. The preferred clone was cultured according to standard procedures described in ATCC (American Type Culture Collection) protocols for CHO-K1 with the addition of 500 μg/ml G-418.
# On the assay day, cells were thawed, harvested and resuspended to 4*10^6 cells/ml in stimulation buffer (containing: Hepes 10 mM, MgCl2 0.5 mM, KCl 4.2 mM, NaCl 146 mM, glucose 5.5 mM, LiCl 50 mM, BSA 0.5% at pH 7.4). Ten μl cell solution was pipetted into wells of a white 384-well plate (Perkin Elmer Optiplate) containing 2 μl compound diluted in assay buffer (containing: Hepes 10 mM, MgCl2 0.5 mM, KCl 4.2 mM, NaCl 146 mM, glucose 5.5 mM, LiCl 50 mM, CaCl2 11.4 mM at pH 7.4), resulting in a final Ca^2+ concentration of 1.9 mM. After compound stimulation for 1 hour at 37° C. and 15 min at room temperature, 10 ul of IP-One assay detection reagent (prepared as described by the IP-One assay kit manufacturer) was added and the plate was incubated for another 1 hour at room temperature. Finally the plate was read using a Perkin Elmer EnVision, according to the protocol supplied by the IP-One assay kit manufacturer. The FRET ratio was calculated by dividing the 665 nm emission signal with that of the 615 nm.
# The molar concentration of a compound that produces 50% of the maximum agonistic response (the […] value) is calculated according to the equation “General sigmoidal curve with Hill slope, a to d” (Equation 1). This model describes a sigmoidal curve with an adjustable baseline. The equation can be used to fit curves where response is either increasing or decreasing with respect to the independent variable, X. […]
# y=(a−d)/(1+(x/c)̂b)+d Equation 1 x=concentration of tested compound […]
# a=min response as compound concentration approaches 0 d=max response as concentration of tested compound is increasing […]
# b=Hill coefficient or curve slope
# [2] = Clearance in human liver microsomes; format: in vitro ADME; settings: hepatic extraction ratio; test compound 0.5 μM, microsomes 0.5 mg/mL, NADPH 1 mM, 37° C.
# Description: Test compound concentration is 0.5 μM, microsome concentration is 0.5 mg/mL and NADPH concentration is 1 mM in the incubation. The described method is performed by the liquid handling system Tecan RSP and is based on a 96-well format.
# Control incubations with test compound without NADPH and test compound without microsomes are conducted to investigate non-CYP mediated metabolism and stability in phosphate buffer at 37° C., respectively.
# The human liver microsomal suspension in phosphate buffer is mixed with NADPH. The mixture is pre-heated (7 min) to 37° C. Test compound is added, and the mixture is incubated for 30 minutes. Incubations are run in duplicate. Samples are withdrawn at predetermined stop times and mixed with methanol containing internal standard (IS) to terminate all enzyme activity and precipitate proteins. A control without NADPH (to detect problems such as nonspecific protein binding, heat instability or non-CYP mediated metabolism) and a control without microsomes (for assessing compound stability in the absence of any active enzymes) are tested.
# The percentage of organic solvent in the incubations is less than 1%. Careful inspections of reagents are performed prior to the start of any experiment to ensure all reagents are in solution.
# The 96-well plates are centrifuged. Test compound depletion, using a compound specific LC/MS/MS method, is determined.
# The logarithm of the peak area ratios of test compound to internal standard (IS) versus incubation time is plotted in a graph.
# The rate constant (k) (min^−1) of test compound depletion is calculated from the linear part of the curve and the half-time (t1/2) in minutes can be calculated from the rate constant (Eq. 2).
# Intrinsic clearance (CIint) (mL/min/mg protein) is calculated from: […]
# where c is the microsomal protein concentration in mg/mL.
# Conversion to apparent clearance (CIapp) (mL/min/kg) is done by Eq. 4:
# CIapp=CIint×a×b/d (Eq. 4)
# where a, b and d are the scaling factors for normalizing CIint to human body weight.
# a: 45 (microsomal protein/liver weight (mg/g))
# b: 1500 (liver weight (g))
# Hepatic clearance (CIh) (mL/min/kg) based on the well-stirred model is described as followed:
# CIh=(CIapp·Q)/(CIapp+Q) (Eq. 5)
# where Q is the liver blood flow in mL/min/kg (20 in humans).
# Dividing hepatic clearance with liver blood flow, the hepatic extraction ratio (%) can be calculated:
# Apparent clearance below approximately 10 mL/min/kg human body weight (corresponding to extraction ratio of approx. 33%) is considered as low clearance (high metabolic stability). Apparent intrinsic clearance above approximately 60 mL/min/kg human body weight (corresponding to extraction ratio of approx. 75%) is considered as high clearance (low metabolic stability).
structure (smiles),measurement,setting,value
"C[C@@H](N[C@H]1CC[C@@H](c2ccc(OCC(=O)NC3CCNCC3)cc2)C1)c1cccc(Cl)c1 [Compound 102, 2-[4-[(1R,3S)-3-[[(1R)-1-(3-Chlorophenyl)ethyl]amino]-cyclopentyl]-phenoxy]-N-(4-piperidyl)-acetamide]",EC50,[1],200 to 1000 nM
same,Clearance (% Eh) in human liver microsomes,[2],A (A: Eh < 33%)
